Test results as given in US12156915B2, “Selected artemisinin dimers for the treatment of lashmaniasis” (priority 2020, dated 2024).
Several values for one entry are separate records, joined by “and”; a condition that tells them apart may be missing. Identical values can stand only once. Entries after “also recorded” stand apart in the source; their conditions may differ.

What was measured:
[1] = test system: L. donovani promastigotes; experiment: Annexin V binding apoptosis assay (Annexin V/Propidium Iodide flow cytometry); format: cell-based, Leishmania donovani; conditions: for apoptotic effect on promastigotes: dimers 14 μM, artemisinin 35 μM, 24 to 72 hrs
Excerpt: Apoptosis, also known as programmed cell death, is a physiological process of removal of unwanted cells (37). In one of the earlier events, the process of apoptosis includes translocation of membrane phosphatidylserine from the inner side of the cell membrane to the surface (38). Annexin V is a Ca^++ dependent phospholipid-binding protein which has a high affinity for phosphatidylserine (39). So FITC-labeled Annexin V can be used for the analysis of exposed PS using a flow cytometer (40). Apoptosis analysis was done by flow cytometry using Annexin V/Propidium Iodide staining method. […] 1×10^7 promastigote cells/ml were treated with artemisinin (35 μM), dimer Morpholine (14 μM) and dimer GABA (14 μM). Aliquots were withdrawn at different time intervals and stained with FITC-Annexin V and Propidium Iodide. The cell was analyzed by flow-cytometry. […] 50,000 in a gated event were run in a FL2 (Propidium Iodide)/FL1 (Annexin FITC) and analyzed by quadrangle plot.

[2] = test system: intracellular amastigote form of L. donovani parasite in differentiated THP1 cells; experiment: Parasite rescue and transformation assay (macrophage internalized amastigotes); format: cell-based, Leishmania donovani; conditions: for selectivity index (SI): IC50 of cytotoxicity divided by IC50 in parasite rescue and transformation assay; for IC50: Leishmania donovani, THP-1, parasite rescue and transformation assay, read-out: IC50 anti-leishmanial activity, intracellular amastigote
Protocol: This assay is based on the previously published protocol by Jain et al. (35). A 3-day old culture of THP1 cells in the exponential phase was diluted with RPMI medium to 2.5×10^5 cells/ml. PMA was added to final a concentration of 25 ng/ml. PMA treated culture was dispensed in clear flat bottom culture plates and incubated overnight at 37° C. in a 5% CO2 incubator. The plates with differentiated THP1 Cells were washed with serum-free medium with the help of Molecular device AquaMax 4000. A 5-6-day old L. donovani promastigote culture diluted to 5×10^6 cells/ml was added over differentiated THP1 cells. The Macrophage cells to parasite ratio for infection was 1:10. The plates were incubated for 24 hrs. After 24 hrs., the plates were again washed with the help of AquaMax 4000 and the serum-free medium was replaced by a medium with diluted test samples. The plates were placed again in a CO2 incubator at […] for 48 hrs. After 48 hrs., the macrophage amastigote plates were washed and treated with 0.05% SDS for 30 secs., and diluted SDS medium was immediately replaced with complete RPMI medium. Plates were incubated for amastigote to promastigote transformation, and promastigote growth at […] for 48 hrs. After 48 hrs., 5 μl of alamar blue was added to each well of macrophage amastigote assay plates, and the plates were incubated further for 24 hrs. Standard fluorescence was measured on a Fluostar Galaxy fluorometer (BMG LabTechnologies) at 544 nm ex, 590 nm em. Xlfit 5.3.1 software has generated all dose response curves.

[3] = test system: promastigote form of L. donovani parasite; experiment: Leishmania donovani promastigote assay (alamar blue); format: cell-based; conditions: read-out: IC50 anti-leishmanial activity, promastigote
Protocol: THP-1 cells (human monocytic leukemia cells) were made available by the American Type Culture Collection (ATCC) and were maintained in RPMI 1640 media (Life-Technologies) supplemented with Sodium Pyruvate, Glutamine, HEPES (Life-81 Technologies) and 10% heat-inactivated FBS (Sigma). The culture was maintained at 37° C. in 5% CO2 incubator. THP1 cells Subculture was done every 3-4 days. Promastigote forms of Leishmania donovani (S1 strain) was grown in RPMI 1640 medium at pH 7.4 supplemented with 10% fetal bovine serum. The culture was maintained at 26° C. by incubator. Subculture was done every 3-4 days. The promastigote assay was based on alamar blue base growth analysis (33). A 3-4 day old promastigote culture in the exponential phase was diluted with RPMI 1640 medium, to 1×10^6 cells/ml. Artemisinin dimer samples were diluted to stock concentration of 2 mg/ml. Artemisinin dimer samples were dispensed in culture plates and diluted with a promastigote culture so the final highest concentration of samples was 10 μg/ml, and highest concentration of parent artemisinin was 40 μg/ml. The culture with the highest concentration of each artemisinin dimer was serially diluted in 1:5 ratio to 6 different concentrations. All artemisinin dimers were tested in triplicate. […] Standard fluorescence was measured on a Fluostar Galaxy fluorometer (BMG LabTechnologies) at 544 nm ex, 590 nm em. […]

[4] = THP1 cytotoxicity assay (alamar blue); format: cell-based; conditions: human, PMA-differentiated THP1 cells, 48 hrs + 24 hrs alamar blue
Protocol: THP-1 cells (human monocytic leukemia cells) were made available by the American Type Culture Collection (ATCC) and were maintained in RPMI 1640 media (Life-Technologies) supplemented with Sodium Pyruvate, Glutamine, HEPES (Life-81 Technologies) and 10% heat-inactivated FBS (Sigma). The culture was maintained at 37° C. in 5% CO2 incubator. THP1 cells Subculture was done every 3-4 days. Promastigote forms of Leishmania donovani (S1 strain) was grown in RPMI 1640 medium at pH 7.4 supplemented with 10% fetal bovine serum. The culture was maintained at 26° C. by incubator. Subculture was done every 3-4 days.
A 3-day old culture of THP1 cells in the exponential phase was diluted with RPMI medium to 2.5×10^5 cells/ml. PMA was added to final a concentration of 25 ng/ml. PMA treated culture was dispensed in clear flat bottom culture plates and incubated overnight at 37° C. in a 5% CO2 incubator. The plates with differentiated THP1 cells were washed with serum-free medium with the help of Molecular device AquaMax 4000 and the serum-free medium was replaced by a medium with diluted test samples. The plates were placed again in a CO2 incubator at […] for 48 hrs. […] Standard fluorescence was measured on a Fluostar Galaxy fluorometer (BMG LabTechnologies) at 544 nm ex, 590 nm em. […]

| IC50 [2] [µM] | Compound | apoptotic effect on promastigotes [1] | selectivity index (SI) [2] | IC50 at 48 h [4] [µM] | also measured |
| --- | --- | --- | --- | --- | --- |
| 0.007 | C[C@H]1[C@@H](OCC(CO[C@H]2O[C@@H]3O[C@@]4(C)CC[C@H]5[C@H](C)CC[C@@H]([C@H]2C)[C@@]35OO4)N2CCOCC2)OC2O[C@@]3(C)CC[C@H]4[C@H](C)CC[C@@H]1[C@@]24OO3 (stereo partly drawn) [Dimer Morpholine] | time-dependent apoptotic effect | > 2056 and > 2052 |  | population in UR area of FL2/FL1 dot plot, 48 hrs compared to 24 hrs ([1]; 14 μM): significantly (P<0.0001) higher population; population in UR area of FL2/FL1 dot plot, 72 hrs compared to 24 hrs ([1]; 14 μM): significantly (P<0.0001) higher population; population in Upper Right (UR, late apoptosis) area of FL2 (PI)/FL1 (Annexin FITC) dot plot compared to control group ([1]; 14 μM, 24 hrs): significantly (P<0.0001) higher population; population in UR area of FL2/FL1 dot plot compared to control group ([1]; 14 μM, 48 hrs): significantly (P<0.0001) higher population; population in UR area of FL2/FL1 dot plot compared to control group ([1]; 14 μM, 72 hrs): significantly (P<0.0001) higher population |
| 0.062 | C[C@@H]1[C@H](O)[C@@H](C)/C=C/C=C/C=C/C=C/C=C/C=C/C=C/[C@H](O[C@@H]2O[C@H](C)[C@@H](O)[C@H](N)[C@@H]2O)C[C@@H]2O[C@](O)(C[C@@H](O)C[C@@H](O)[C@H](O)CC[C@@H](O)C[C@@H](O)CC(=O)O[C@H]1C)C[C@H](O)[C@H]2C(=O)O [amphotericin, amphotericin B] |  | 201 |  |  |
| > 35.4 | C[C@@H]1CC[C@H]2[C@@H](C)C(=O)O[C@@H]3O[C@@]4(C)CC[C@@H]1[C@]32OO4 [artemisinin] | does not have; also recorded: does not have leishmanicidal or apoptotic effect |  |  | anti-leishmanial (leishmanicidal) effect ([1]; artemisinin at 35 μM): does not have an anti-leishmanial effect; also recorded: does not have leishmanicidal or apoptotic effect; IC50 [3]: 99.2 µM |
|  | C[C@H]1[C@@H](OC/C(CO[C@H]2O[C@@H]3O[C@]4(C)CC[C@H]5[C@H](C)CC[C@@H]([C@H]2C)[C@@]35OO4)=N\O)O[C@@H]2OC3(C)CC[C@H]4[C@H](C)CC[C@@H]1[C@@]24OO3 [dimer oxime] |  |  | 11.4 |  |
|  | C[C@H]1[C@@H](OCC(CO[C@H]2O[C@@H]3O[C@@]4(C)CC[C@H]5[C@H](C)CC[C@@H]([C@H]2C)[C@@]35OO4)NCCc2c[nH]c3ccccc23)OC2O[C@@]3(C)CC[C@H]4[C@H](C)CC[C@@H]1[C@@]24OO3 (stereo partly drawn) [dimer tryptamine] |  |  | 7.39 |  |
| 0.545 | N=C(N)c1ccc(OCCCCCOc2ccc(C(=N)N)cc2)cc1 [pentamidine] |  | 63 |  |  |
